The source of these data is article PMC10728248, “A Novel Near-Infrared Fluorescence Probe THK-565 Enables In Vivo Detection of Amyloid Deposits in Alzheimer’s Disease Mouse Model” (Molecular Imaging and Biology, 2023).

One may read the Kd as the equilibrium constant for the complex coming apart.

For this assay, the target named is T1, amyloid-β (Aβ1-40) fibrils (Homo sapiens, UniProt P05067).
T1 construct: gene APP; Aβ1-40, aggregated (fibrils)
The assay can be described thus: fluorescence saturation binding (ΔF at […] nm, fibrils vs soluble Aβ).

T1 sequence (P05067 672-711): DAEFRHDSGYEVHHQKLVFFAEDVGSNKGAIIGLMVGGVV

`Cc1ccc2c(c1)C(C)(C)C1(/C=C/C=C/c3ccc(N(C)C)cc3)NC(=O)CCN21` (stereo not shown) [THK-565, 10a-[(1E,3E)-4-(4-dimethylamino-phenyl)-buta-1,3-dienyl]-8,10,10-trimethyl-3,4,10,10a-tetrahydro-1H-pyrimido[1,2-a]indol-2-one] yielded a Kd of 156 nM.
